Values after ≈ are worked out from the molar mass of the structure shown. Where two headings read alike, the source gives them in different places.
How the values were obtained:
DENV-2 (Dengue Virus 2) = conditions: cited from earlier work
mice [1] = test: NOAEL, oral, mice; conditions: for factor NOAEL over daily inhaled dose: 2 mL/dose 4 times per day of Table A2 composition; for NOAEL for a 62 kg adult human: extrapolated from mouse NOAEL
CB2 receptor = CB2 receptor (Homo sapiens, UniProt P34972); conditions: unit inferred; read-out: Ki, CB2 receptor binding; cited from earlier work
[2] = tested on: Herpes simplex virus type 1 (HSV-1); conditions: cited from earlier work
[3] = cited from earlier work
E. coli (MTCC 732) = conditions: cited from earlier work
NCI-H358 cells = conditions: cited from earlier work
[4] = tested on: human lung carcinoma (A549) cell line; conditions: cited from earlier work
[5] = for Concentration in Epithelial Lining Fluid: single 2 mL dose, 25 mL ELF, 100 percent retained
K. pneumoniae = conditions: cited from earlier work
S. aureus = conditions: cited from earlier work
human whole blood = conditions: 102 μg/mL; cited from earlier work
P. aeruginosa = conditions: cited from earlier work
human TRPM8 (hTRPM8) = human TRPM8 (hTRPM8) (Homo sapiens, UniProt Q7Z2W7); conditions: cited from earlier work
[6] = tested on: patients with reversible obstructive ventilatory disorders; conditions: cited from earlier work
avian coronavirus (IBV) = conditions: cited from earlier work
hTRPA1 = hTRPA1 (Homo sapiens, UniProt O75762); conditions: cited from earlier work
[7] = tested on: superoxide, super oxide dismutase, hydrogen peroxide, 8-isoprostanes; conditions: cited from earlier work
monocytes = conditions: cited from earlier work
lymphocytes = conditions: cited from earlier work
hTRPV2 = hTRPV2 (Homo sapiens, UniProt Q9Y5S1); conditions: cited from earlier work
TRPV1 = TRPV1 (Homo sapiens, UniProt Q8NER1); conditions: cited from earlier work
[8] = tested on: patients with steroid-dependent bronchial asthma; conditions: cited from earlier work
blood monocytes = conditions: cited from earlier work
mice [9] = conditions: oral, mice, 28-d; cited from earlier work

CB2 receptor, sequence (P34972 whole entry): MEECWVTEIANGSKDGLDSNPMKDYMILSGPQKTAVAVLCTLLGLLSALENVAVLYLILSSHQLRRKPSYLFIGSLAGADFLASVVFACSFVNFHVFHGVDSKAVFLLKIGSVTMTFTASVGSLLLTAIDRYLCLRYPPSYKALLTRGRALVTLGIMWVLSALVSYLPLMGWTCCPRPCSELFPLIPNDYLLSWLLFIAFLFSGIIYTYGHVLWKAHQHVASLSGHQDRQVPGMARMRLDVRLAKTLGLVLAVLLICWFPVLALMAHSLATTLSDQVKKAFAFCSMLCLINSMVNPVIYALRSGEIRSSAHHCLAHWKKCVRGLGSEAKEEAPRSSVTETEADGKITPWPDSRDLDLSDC
hTRPA1, sequence (O75762 whole entry): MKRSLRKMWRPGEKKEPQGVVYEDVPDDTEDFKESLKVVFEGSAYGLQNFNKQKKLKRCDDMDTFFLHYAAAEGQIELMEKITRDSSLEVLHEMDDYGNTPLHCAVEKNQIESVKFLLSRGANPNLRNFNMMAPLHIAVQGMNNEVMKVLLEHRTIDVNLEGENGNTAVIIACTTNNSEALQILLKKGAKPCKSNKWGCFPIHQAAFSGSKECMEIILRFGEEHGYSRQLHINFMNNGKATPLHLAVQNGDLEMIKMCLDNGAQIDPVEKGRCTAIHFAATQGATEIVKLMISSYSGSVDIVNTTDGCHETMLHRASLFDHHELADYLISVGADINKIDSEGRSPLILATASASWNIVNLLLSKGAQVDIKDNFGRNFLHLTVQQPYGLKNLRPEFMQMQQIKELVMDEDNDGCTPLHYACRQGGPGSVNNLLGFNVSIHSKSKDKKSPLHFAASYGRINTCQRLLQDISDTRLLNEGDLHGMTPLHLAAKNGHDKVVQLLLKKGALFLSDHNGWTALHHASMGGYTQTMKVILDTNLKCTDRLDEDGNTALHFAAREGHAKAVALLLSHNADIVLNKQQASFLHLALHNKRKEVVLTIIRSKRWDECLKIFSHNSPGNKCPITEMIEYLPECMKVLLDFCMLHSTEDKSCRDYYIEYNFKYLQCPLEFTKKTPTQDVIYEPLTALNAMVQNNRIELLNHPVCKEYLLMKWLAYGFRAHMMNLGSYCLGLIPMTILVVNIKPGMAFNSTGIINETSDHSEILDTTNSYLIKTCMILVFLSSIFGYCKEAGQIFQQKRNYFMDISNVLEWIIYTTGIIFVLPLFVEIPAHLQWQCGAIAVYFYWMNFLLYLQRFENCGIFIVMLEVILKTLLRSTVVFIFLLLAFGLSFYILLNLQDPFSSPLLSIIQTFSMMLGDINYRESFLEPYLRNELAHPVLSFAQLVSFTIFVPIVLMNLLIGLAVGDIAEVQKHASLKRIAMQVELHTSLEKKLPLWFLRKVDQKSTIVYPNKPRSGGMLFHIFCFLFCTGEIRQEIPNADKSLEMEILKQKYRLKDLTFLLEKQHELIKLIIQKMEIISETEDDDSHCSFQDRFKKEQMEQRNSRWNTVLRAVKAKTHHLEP
TRPV1, sequence (Q8NER1 whole entry): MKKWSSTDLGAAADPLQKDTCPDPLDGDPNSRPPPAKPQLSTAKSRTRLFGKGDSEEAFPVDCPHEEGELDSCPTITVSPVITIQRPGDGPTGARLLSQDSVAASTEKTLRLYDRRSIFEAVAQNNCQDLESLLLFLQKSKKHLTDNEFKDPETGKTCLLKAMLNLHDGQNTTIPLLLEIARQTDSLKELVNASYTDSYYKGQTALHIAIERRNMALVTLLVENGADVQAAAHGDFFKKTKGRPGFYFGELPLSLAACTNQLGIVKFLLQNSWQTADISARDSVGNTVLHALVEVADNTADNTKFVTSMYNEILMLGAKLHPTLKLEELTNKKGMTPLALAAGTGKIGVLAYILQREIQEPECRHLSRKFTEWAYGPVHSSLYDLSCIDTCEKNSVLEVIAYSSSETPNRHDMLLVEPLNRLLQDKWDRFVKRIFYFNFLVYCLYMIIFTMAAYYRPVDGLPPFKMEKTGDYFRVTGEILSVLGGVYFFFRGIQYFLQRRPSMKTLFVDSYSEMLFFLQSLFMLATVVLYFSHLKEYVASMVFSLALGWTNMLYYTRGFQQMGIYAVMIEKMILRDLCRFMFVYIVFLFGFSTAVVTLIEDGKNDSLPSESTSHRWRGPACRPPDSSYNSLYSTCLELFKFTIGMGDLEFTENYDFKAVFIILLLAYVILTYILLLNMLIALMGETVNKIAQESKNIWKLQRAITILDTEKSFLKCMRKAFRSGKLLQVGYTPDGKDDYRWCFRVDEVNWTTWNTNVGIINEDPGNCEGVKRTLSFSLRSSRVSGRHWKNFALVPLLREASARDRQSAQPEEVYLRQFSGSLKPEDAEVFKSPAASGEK
hTRPV2, sequence (Q9Y5S1 whole entry): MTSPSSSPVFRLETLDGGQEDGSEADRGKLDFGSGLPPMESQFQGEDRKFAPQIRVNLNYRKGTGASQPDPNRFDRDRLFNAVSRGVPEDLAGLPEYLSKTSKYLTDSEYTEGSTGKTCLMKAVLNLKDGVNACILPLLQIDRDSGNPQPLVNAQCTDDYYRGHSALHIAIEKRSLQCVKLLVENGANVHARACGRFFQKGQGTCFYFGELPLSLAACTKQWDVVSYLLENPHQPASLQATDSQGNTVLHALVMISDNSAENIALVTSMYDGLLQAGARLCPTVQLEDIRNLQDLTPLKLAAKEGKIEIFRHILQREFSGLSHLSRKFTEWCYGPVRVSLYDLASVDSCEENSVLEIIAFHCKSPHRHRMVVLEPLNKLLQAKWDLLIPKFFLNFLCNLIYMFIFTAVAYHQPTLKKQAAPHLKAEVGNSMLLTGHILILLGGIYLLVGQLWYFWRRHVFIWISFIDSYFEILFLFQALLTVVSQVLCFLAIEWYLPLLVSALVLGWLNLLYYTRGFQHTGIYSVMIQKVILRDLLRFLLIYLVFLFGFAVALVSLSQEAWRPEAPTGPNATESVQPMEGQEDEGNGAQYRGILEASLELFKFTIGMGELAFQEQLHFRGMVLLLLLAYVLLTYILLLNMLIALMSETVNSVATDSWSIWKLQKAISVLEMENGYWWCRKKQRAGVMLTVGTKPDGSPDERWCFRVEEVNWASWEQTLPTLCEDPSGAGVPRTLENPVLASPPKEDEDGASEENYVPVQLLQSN
human TRPM8 (hTRPM8), sequence (Q7Z2W7 whole entry): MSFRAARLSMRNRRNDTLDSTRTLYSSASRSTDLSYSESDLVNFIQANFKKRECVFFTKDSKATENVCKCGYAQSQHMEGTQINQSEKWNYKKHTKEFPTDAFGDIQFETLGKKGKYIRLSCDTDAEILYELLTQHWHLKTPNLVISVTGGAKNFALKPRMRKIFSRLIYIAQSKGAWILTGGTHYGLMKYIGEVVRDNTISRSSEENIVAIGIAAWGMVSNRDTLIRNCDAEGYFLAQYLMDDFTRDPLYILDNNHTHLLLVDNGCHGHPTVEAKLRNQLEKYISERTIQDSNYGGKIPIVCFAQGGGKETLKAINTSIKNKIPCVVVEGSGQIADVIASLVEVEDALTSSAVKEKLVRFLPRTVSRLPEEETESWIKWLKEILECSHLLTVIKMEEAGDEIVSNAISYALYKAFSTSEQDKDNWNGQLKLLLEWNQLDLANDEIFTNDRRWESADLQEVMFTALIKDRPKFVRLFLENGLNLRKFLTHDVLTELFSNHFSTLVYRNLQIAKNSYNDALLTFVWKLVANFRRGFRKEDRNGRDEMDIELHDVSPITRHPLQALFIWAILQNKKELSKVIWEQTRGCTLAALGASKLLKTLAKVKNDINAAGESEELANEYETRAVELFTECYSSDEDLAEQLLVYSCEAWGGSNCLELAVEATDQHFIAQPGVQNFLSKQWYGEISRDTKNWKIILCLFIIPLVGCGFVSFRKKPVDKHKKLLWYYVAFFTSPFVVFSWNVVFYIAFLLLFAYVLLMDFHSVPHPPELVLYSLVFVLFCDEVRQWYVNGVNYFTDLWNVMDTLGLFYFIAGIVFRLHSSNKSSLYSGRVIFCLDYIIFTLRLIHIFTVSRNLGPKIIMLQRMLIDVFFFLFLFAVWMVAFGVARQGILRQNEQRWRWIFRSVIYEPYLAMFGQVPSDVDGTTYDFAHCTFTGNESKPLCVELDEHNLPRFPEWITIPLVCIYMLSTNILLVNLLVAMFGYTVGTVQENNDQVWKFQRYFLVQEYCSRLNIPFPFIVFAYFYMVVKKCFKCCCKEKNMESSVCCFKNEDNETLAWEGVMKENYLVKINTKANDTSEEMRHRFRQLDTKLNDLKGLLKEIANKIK

## C=C1CC/C=C(\C)CC[C@@H]2[C@@H]1CC2(C)C [β-caryophyllene]
DENV-2 (Dengue Virus 2); DENV-2, non-cytostatic
  selectivity index: 71.1
DENV-2 (Dengue Virus 2)
  IC50: 22.5 µM
  IC50, DENV-2: 4.6 µg/mL (≈ 22.5 µM)
Mice [1]
  factor NOAEL over daily inhaled dose: 868 times
  NOAEL for a 62 kg adult human: 43,400 mg per day
CB2 receptor
  Ki: 0.155 µM
[2]
  IC50: 0.25 µM
[3]; in vivo
  LD50: > 5,000 mg/kg
E. coli (MTCC 732)
  Minimum Inhibitory Concentration (MIC): 9.0 ± 2.2 µM
NCI-H358 cells
  cytotoxic IC50: 31.19 ± 2.01 µg/mL
[4]
  cytotoxic IC50: 28.18 ± 1.96 µg/mL
[5]; Table A2 Preferred Base Viral Nebulizer Liquid
  Concentration in Epithelial Lining Fluid: 600 µg/mL
[5]; Table A3 Preferred Viral Respiratory Challenged Nebulizer Liquid
  Concentration in Epithelial Lining Fluid: 970 µg/mL
[5]; Table A4 Preferred Bacterial Pneumonia Nebulizer Liquid
  Concentration in Epithelial Lining Fluid: 1450 µg/mL
[5]; Table A6 Preferred Base Nebulizer Liquid with Amino Acids
  Concentration in Epithelial Lining Fluid: 1450 µg/mL
K. pneumoniae
  MIC: 14 µM (≈ 2.86 µg/mL)
S. aureus
  MIC: 3 µM (≈ 0.613 µg/mL)
Human whole blood
  LPS-stimulated IL-1β and TNF-α expression: inhibits
P. aeruginosa
  MIC: 7 µM (≈ 1.43 µg/mL)

## CC12CCC(CC1)C(C)(C)O2 [1,8-cineole]
Mice [1]
  factor NOAEL over daily inhaled dose: 697.5 times
  NOAEL for a 62 kg adult human: 34,875 mg per day
Human TRPM8 (hTRPM8)
  activation of hTRPM8: activates
[3]; in vivo
  LD50: 2,480 mg/kg
[3]; oral, rat
  LD50: 2,480 mg/kg
[6]; treatment duration eight weeks
  improvement of airway resistance: −21%
[6]; treatment duration one week
  improvement of airway resistance: −23%
Avian coronavirus (IBV)
  IC50: 610 µM
hTRPA1
  activation of hTRPA1: did not activate
[7]; 10^−5 M
  LPS-stimulated 8-isoprostanes: −84%
[7]; 10^−6 M
  LPS-stimulated 8-isoprostanes: −42%
monocytes; 0.15 μg/ml
  inhibition of IL-1β production by monocytes: 61%
  inhibition of TNFα production by monocytes: 77%
monocytes; 1.5 μg/mL
  inhibition of IL-1β production in monocytes: 84%
  inhibition of IL-6 production in monocytes: 76%
  inhibition of IL-8 production in monocytes: 65%
  inhibition of TNFα production in monocytes: 99%
lymphocytes; 0.15 μg/ml
  inhibition of IL-1β production by lymphocytes: 36%
  inhibition of TNF-α production by lymphocytes: 16%
lymphocytes; 1.5 μg/mL
  inhibition of IL-4 production in lymphocytes: 70%
  inhibition of IL-5 production in lymphocytes: 65%
  inhibition of TNFα production in lymphocytes: 92%
  inhibition of cytokine production in lymphocytes, second value (cytokine not named): 84%
[5]; human
  estimated concentration in the epithelial lining fluid of the lungs: 614 µg/mL
hTRPV2
  activation of hTRPV2: did not activate
TRPV1
  activation of hTRPV1: did not activate
[8]; 200 mg 3 times per day orally, 12 weeks, placebo 0.91 mg
  mean reduction in daily prednisolone dosage: 3.75 mg
[8]; 200 mg 3 times per day orally, 12 weeks, placebo 7%
  reductions in daily prednisolone dosage tolerated: 36%
[8]; 1,8-cineole group, placebo four out of 16
  patients achieving a reduction of oral steroids: Twelve of 16
Blood monocytes; day 4, healthy volunteers
  production of LTB4 from monocytes ex vivo: −57.9%
  production of PGE2 from monocytes ex vivo: −42.7%
Blood monocytes; day 4, patients with bronchial asthma, 200 mg 3 times/day
  production of LTB4 from monocytes ex vivo: −40.3%
Blood monocytes; day 4, patients with bronchial asthma
  production of PGE2 from monocytes ex vivo: −31.3%
Mice [9]
  NOAEL: 562.5 mg/kg

— patent publication US20230355571A1, “METHOD FOR TREATING VIRAL AND BACTERIAL INFECTION THROUGH INHALATION THERAPY” (priority 2020, published 2023)
